Assay [1] deals with IL-1β production in murine peritoneal macrophages. The experiment in a line: IL-1β production in LPS-stimulated macrophages, ELISA. The class given is cell-based, murine (C57BL/6 mice). Conditions: Mus musculus, Peritoneal macrophage; pre-treated 12 h, LPS 1 μg/mL 18 h. On the procedure:
(§1) C57BL/6 mice were purchased from Orient Bio Co. (Sungnam, Kyung-Kido, Korea). TG-elicited peritoneal macrophages were harvested four days after intraperitoneal (i.p.) injection of 3 mL of TG [37]. Peritoneal lavage was performed using 8 mL of Hanks’ Balanced Salt Solution containing 10 U/mL heparin. The cells were distributed in Roswell Park Memorial Institute medium (RPMI) supplemented with 10% heat-inactivated FBS, in 6-well tissue culture plates (5 × 10^6 cells/mL). The level of PGE2, TNF-α or IL-1β present in each sample was determined using a commercially available kit from R & D Systems. The assay was performed according to the manufacturer’s instructions. Briefly, murine peritoneal macrophages were cultured in 24-well plates, pre-incubated for 12 h with different concentrations of compounds 1–3, and then stimulated for 18 h with LPS. The cell culture supernatants were then immediately collected after treatment and centrifuged at 13,000× g for 2 min to remove particulate matter. The medium was added to a 96-well plate pre-coated with affinity-purified PGE2-specific polyclonal antibodies or the medium was added to a 96-well plate pre-coated with affinity-purified polyclonal antibodies that were specific to mouse TNF-α or IL-1β. An enzyme-linked polyclonal antibody specific for PGE2, mouse TNF-α or IL-1β was added to the wells for 20 h, followed by a final wash to remove any unbound antibody-enzyme reagent. A substrate solution was added, and the intensity of the color produced, which was measured at 450 nm (the correction wavelength was set at 540 nm or 570 nm), was proportional to the amount of PGE2, TNF-α or IL-1β present.
(ELISA stands for enzyme-linked immunosorbent assay.)

Assay [2] has as its system TNF-α production in murine peritoneal macrophages. As to the kind of experiment: TNF-α production in LPS-stimulated macrophages, ELISA. The class given is cell-based, murine (C57BL/6 mice). Conditions: Mus musculus, Peritoneal macrophage; pre-treated 12 h, LPS 1 μg/mL 18 h. On the procedure: as §1
The test system of assay [3] is iNOS-derived NO production in murine peritoneal macrophages. The experiment in a line: Nitrite (NO) production in LPS-stimulated macrophages, Griess reaction. Conditions: Mus musculus, Peritoneal macrophage; pre-treated 12 h, LPS 1 μg/mL 18 h. The format is cell-based, murine (C57BL/6 mice). On the procedure:
The expression of pro-inflammatory enzymes, including COX-2 and iNOS, plays an important role in immune-activated macrophages via the production of COX-2-derived PGE2 and iNOS-derived NO [20, 21]. To investigate the effects of compounds on iNOS-derived NO and COX-2-derived PGE2 production, and iNOS and COX-2 expression in LPS-stimulated macrophages, murine peritoneal macrophages were stimulated with LPS (1 μg/mL) for 18 h in the presence or absence of non-cytotoxic concentrations of compounds 1–3 (Figure S1). […] The finding that penstyrylpyrone (1) suppressed LPS-induced pro-inflammatory mediators, such as NO, PGE2, iNOS, and COX-2, led further investigation of the effects of penstyrylpyrone (1) on LPS-induced TNF-α and IL-1β production, which are other pro-inflammatory mediators.
C57BL/6 mice were purchased from Orient Bio Co. (Sungnam, Kyung-Kido, Korea). TG-elicited peritoneal macrophages were harvested four days after intraperitoneal (i.p.) injection of 3 mL of TG [37]. Peritoneal lavage was performed using 8 mL of Hanks’ Balanced Salt Solution containing 10 U/mL heparin. The cells were distributed in Roswell Park Memorial Institute medium (RPMI) supplemented with 10% heat-inactivated FBS, in 6-well tissue culture plates (5 × 10^6 cells/mL).
The production of nitrite, a stable end product of NO oxidation, was used as a measure of iNOS activity. The nitrite present in the conditioned medium was determined using a method based on the Griess reaction.

Assay [4] addresses T1, PTP1B (human, recombinant) (Homo sapiens, UniProt P18031).
T1 construct: purchased BIOMOL Research Laboratories, Inc
T1 sequence (P18031 1-435): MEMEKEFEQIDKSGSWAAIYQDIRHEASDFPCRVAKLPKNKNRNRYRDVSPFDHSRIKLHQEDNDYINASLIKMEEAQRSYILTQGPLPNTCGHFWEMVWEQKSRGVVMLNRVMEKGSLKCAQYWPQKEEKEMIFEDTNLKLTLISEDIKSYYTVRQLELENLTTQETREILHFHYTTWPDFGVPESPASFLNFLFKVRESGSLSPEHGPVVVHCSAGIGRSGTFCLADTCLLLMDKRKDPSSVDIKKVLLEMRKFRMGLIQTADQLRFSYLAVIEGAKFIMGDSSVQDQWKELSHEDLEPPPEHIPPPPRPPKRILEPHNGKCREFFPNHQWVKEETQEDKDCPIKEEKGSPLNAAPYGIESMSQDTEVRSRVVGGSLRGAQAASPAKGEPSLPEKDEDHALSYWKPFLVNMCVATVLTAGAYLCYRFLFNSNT
The experiment in a line: PTP1B assay (pNPP hydrolysis). The class given is biochemical. On the procedure:
PTP1B (human, recombinant) was purchased from BIOMOL Research Laboratories, Inc. Enzyme activity was measured in a reaction mixture containing 2 mM p-nitrophenyl phosphate (pNPP) in 50 mM citrate, pH 6.0 (composition: 0.1 M NaCl, 1 mM EDTA, and 1 mM dithiothreitol (DTT)). The reaction mixture was placed in an incubator maintained at 30 °C for 30 min, and the reaction was terminated by the addition of 1 N NaOH. The amount of p-nitrophenol produced was estimated by measuring the increase in absorbance at 405 nm. The nonenzymatic hydrolysis of 2 mM pNPP was corrected by measuring the increase in absorbance at 405 nm in the absence of PTP1B enzyme. For the kinetic analysis, the reaction mixture consisted of different concentrations of pNPP as a PTP1B substrate in the absence or presence of compound 1, and assays were performed as described above. The Michaelis-Menten constant (Km) and maximum velocity (Vmax) of PTP1B were determined by the Lineweaver-Burk plot using a GraphPad Prism® 4 program (GraphPad Software Inc., San Diego, CA, USA).

Results on one compound are retold here after paper PMC3705412, “PTP1B Inhibitory and Anti-Inflammatory Effects of Secondary Metabolites Isolated from the Marine-Derived Fungus Penicillium sp. JF-55” (Marine Drugs, 2013).

For orientation: IC50 means the point on the concentration scale where inhibition reaches its midpoint. Regarding `COc1cc(/C=C/c2ccccc2)oc(=O)c1C` [Penstyrylpyrone (1), penstyrylpyrone], the IC50 in assay [1] is 13.5 µM; in assay [2], 18.3 µM; in assay [3], 12.3 µM; in assay [4] (2 mM pNPP, pH 6.0, 30 °C, 30 min, read-out: PTP1B inhibitory activity IC50), 5.28 µM. Besides, in assay [4] (different concentrations of pNPP), the “Mode of PTP1B inhibition (Lineweaver-Burk, non-linear regression)” value is “competitive”.
